Assay results published in patent publication US12667584B2, “Adenosine analog and its use in regulating the circadian clock” (NATIONAL INSTITUTE OF BIOLOGICAL SCIENCES, BEIJING, priority 2017, dated 2026).

Key:
core clock genes = experiment: qPCR of pre-mRNA of core clock genes in liver; assay type: in vivo, mouse; conditions: 15 mg/kg, 1 h after treatment
Experimental: Total RNA Extraction and pre-mRNA Analysis: Total RNA from liver was extracted 1 h after treatment of either DMSO or 15 mg/kg bw with QIAGEN Rneasy Mini Kit (74104, Qiagen), then digested with RNase-Free DNase Set (79254, Qiagen) to remove DNA residual. 500 ng total was reverse transcripted into cDNA with PrimeScript™ RT Master Mix (Takara, RR036A). To compare pre-mRNA levels, equal amount of cDNA RNA from DMSO and CA03 treated samples were analyzed using SYBR Green Master Mix (Kapa Biosystems, KP-KK4601) on a BioRad CFX96 instrument. Each gene was analyzed with multiple primers across the whole gene, and the amplification products were either intronic or across an intron-exon junction. Only primers with good melt-curve were used. For quantification, gene expression in DMSO treated sample was used as control, the relative genes expression in CA03 treated sample calculated by the comparative Ct Method.
Next, the inventors sought to determine whether the clock effects of cordycepin can be recaptured in vivo. […] Mice were intraperitoneally (i.p.) injected with the cordycepin at ZT4 (ZT, zeitgeber time; ZT0 starts light-on, and ZT12 begins light-off). […] This observation is especially true when nascent RNA levels were measured, highlighting the first-order, inductive response in E-box genes as previously proposed(FIG. 2B). […]

[1] = target: T1, Ruvbl2, Bmal1, Cry1 and CDK9 interaction (Homo sapiens, UniProt Q9Y230); experiment: Co-immunoprecipitation in transfected HEK293T cells; assay type: cell-based; conditions: 100 μM
T1 construct: expressed in transfected cells; host or cells: HEK293T
Experimental: Biotinylated Compounds Pull-down, SPR analysis and Immunoprecipitation: The interaction between biotinylated compounds and their target proteins were proceeded as follow. Every 10^8 unsynchronized U2OS cells were collected, homogenized into 2 ml lysis buffer (25 mM MOPS pH7.2, 15 mM EGTA, 15 mM MgCl2, 1 mM DTT, 60 mM β-glycerophosphate, 1 mM Na3VO4, 1 mM NaF, 1 mM phenyl phosphate, Complete Protease Inhibitor Cocktail), and sonicated 6 times for 30 s at 4° C. with a Diagenode bioruptor. After sonication, NP-40 (final 0.5%) was added, incubated 15 min on ice, centrifuged at full speed for 20 min at 4° C. The resultant supernatant was firstly incubated with Pentostatin (final concentration at 5 μg/ml) for 2 h at 4° C. with rotation, and then split into 4 groups. 200 pmol cordycepin, 200 pmol DRB, and DMSO (2 groups, final 0.1%) was added respectively and further incubated for 1 h. […] The eluted protein was analyzed with western blot. The binding affinity of cordycepin against the RUVBL2 protein was measured via SPR technology using a Biacore T200 instrument (GE Healthcare) at room temperature. […] The binding kinetics and binding affinity of cordycepin against the RUVBL2 protein were determined with BIA evaluation software (GE healthcare). […] Immunoprecipitated protein complex was then washed 3 times with IP lysis buffer, boiled and analyzed with western blot. […]

T1 sequence (Q9Y230 whole entry): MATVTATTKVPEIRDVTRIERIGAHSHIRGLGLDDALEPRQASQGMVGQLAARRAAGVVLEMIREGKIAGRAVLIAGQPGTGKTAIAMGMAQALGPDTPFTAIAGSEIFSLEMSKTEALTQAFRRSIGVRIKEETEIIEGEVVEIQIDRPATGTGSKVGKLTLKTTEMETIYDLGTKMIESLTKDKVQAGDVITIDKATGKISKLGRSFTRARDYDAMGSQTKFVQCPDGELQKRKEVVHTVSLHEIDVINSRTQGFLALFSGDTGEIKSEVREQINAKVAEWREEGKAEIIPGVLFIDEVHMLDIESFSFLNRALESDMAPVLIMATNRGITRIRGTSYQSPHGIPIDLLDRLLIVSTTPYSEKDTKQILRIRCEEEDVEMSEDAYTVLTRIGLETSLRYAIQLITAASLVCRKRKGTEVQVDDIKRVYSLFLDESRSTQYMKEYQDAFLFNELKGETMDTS

Q: With Nc1ncnc2c1ncn2[C@@H]1O[C@H](CO)C[C@H]1O [Cordycepin, 3′-deoxy-adenosine] as the compound, how does the “E-box gene transcription (pre-mRNA, liver)” value (core clock genes) read?
A: activate

Q: And the “RRE gene and internal control gene transcription (pre-mRNA, liver)” value (core clock genes)?
A: repress

Q: What about the “interaction between Ruvbl2 and Bmal1, or Cry1 with Bmal1” value [1] of the same compound?
A: can be disassociated

Q: And the “interaction between Ruvbl2 with Cry1 or CDK9” value [1]?
A: is not disassociated
